Test results published in patent EP0179667B1, “N6-substituted adenosines” (priority 1984, dated 1986).
pIC50: −log10 of the molar value.

What was measured:
adenosine A2 receptor = molecular target: T1, adenosine A2 receptor (Rattus norvegicus, UniProt P30543); assay: Adenosine Receptor Binding - A2 Receptor Affinity (RBA2); settings: [3H]NECA, rat striatal membranes; read-out: RBA-2
T1 construct: 5 mg original tissue weight of rat weight of rat striatal membranes; tissue Pel-Freez (Rogers, Arkansas); host or cells: rat striatum, membrane preparation
Protocol: Adenosine Receptor Binding - A2 Receptor Affinity (RBA2)
Brains from 200-500 g mixed sex Sprague-Dawley rats were purchased from Pel-Freez (Rogers, Arkansas). […] Brains were thawed and then kept on ice while the striata were dissected out. […] When needed, tissue was thawed at room temperature, disrupted in a Polytron, and kept on ice until used.
All incubations were for 60 minutes at 25°C in 12x75 mm glass tubes containing 1 ml Tris with 5 mg original tissue weight of rat weight of rat striatal membranes, 4 nM [^3H]-N-ethyl adenosine-5'-carboxamide ([^3H]NECA), 50 nM N^6-cyclopentyladenosine (to eliminate A1 receptor binding), 10 mM MgCl2, 0.1 units/ml of adenosine deaminase and 1% dimethylsulfoxide. N^6-Cyclopentyladenosine was dissolved at 10 mM in 0.02 N HCI and diluted in Tris. […] Test compounds were dissolved at 10 mM in dimethylsulfoxide on the same day as the experiment, and diluted in dimethylsulfoxide to 100x the final incubation concentration. […] [^3H]NECA was diluted to 40 nM in Tris. The membrane suspension (5 mg/0.79 ml) contained sufficient MgC12 and adenosine deaminase to give 10 mM and 0.1 units/ml, respectively, final concentration in the incubation. For test compounds with lC50 values less than 1 µM, the order of additions was test compound (10 µl), N^6-cyclopentyladenosine (100 µl), [^3H]NECA (100 µl), and membranes (0.79 ml). […] After all additions, the rack of tubes was vortexed, and the tubes were then incubated for 60 min at 25°C in a shaking water bath. The rack of tubes was vortexed an additional time halfway through the incubation.
incubations were terminated by filtration through 2.4 cm GF/B filters under reduced pressure. Each tube was filtered as follows: the contents of the tube were poured onto the filter, 4 ml of ice-cold Tris were added to the tube and the contents poured onto the filter, and the filter was washed twice with 4 ml of ice-cold Tris. The filtration was complete in about twelve seconds.
Nonspecific binding was defined as binding in the presence of 100 µM N^6-cyclopentyladenosine, and specific binding was defined as total binding minus nonspecific binding. The IC50 was calculated by weighed nonlinear least squares curve-fitting to the mass-action equation. [formula] • where Y is cpm bound • T is cpm total binding without drug • S is cpm specific binding without drug • D is the concentration of drug • and K is the IC50 of the drug Weighting factors were calculated under the assumption that the standard deviation was proportional to the predicted value of Y. Nonspecific binding was treated as a very large (infinite) concentration of drug in the computer analysis.

Swiss-Webster male mice [1] = assay: Mouse Activity and Screen Test Procedure (MAST): locomotor activity in actophotometer; assay type: in vivo; settings: one hour prior to testing
Protocol: Nine unfasted Swiss-Webster male mice weighing 20-30 g equally divided into three groups for each drug dose to be tested. That is, data for each dose level was generated by three separated groups of three mice each. A minimum of three dose levels (10, 30, and 100 mg/kg) are tested for each drug. Treatments are administered intraperitoneally one hour prior to testing. All dosages are calculated as parent compound and given in volumes of 10 ml/kg. […] Control animals are injected with Methocel. […] The actophotometer consists of a cylindrical chamber whose center is occupied by another cylinder which contains the illumination for six photocells located on the perimeter of the chamber. Six light-beam interruptions equal one count. […] Data: The data obtained from the screen test are expressed as percent of mice falling off the screen. Data derived from locomotor activity of drug treated mice are compared to the activity of vehicle treated animals and are expressed as percent inhibition of spontaneous locomotion. All percentages reported for inhibition of locomotion (LI) are based upon data accumulated for one hour. […] An overall dose rating is obtained by the following criteria: LAD refers to the lowest dose at which an A rating is achieved. […] The compounds are identified in the Examples.

Swiss-Webster male mice [2] = assay: Mouse Activity and Screen Test Procedure (MAST): screen test (ST); assay type: in vivo; settings: one hour postinjection
Text: The compounds of the invention are new chemical substances which are useful as pharmaceutical agents for the treatment of psychoses. The antipsychotic activity of representative compounds of the invention was established by the Mouse Activity and Screen Test Procedrue (MAST) described below.
Nine unfasted Swiss-Webster male mice weighing 20-30 g equally divided into three groups for each drug dose to be tested. That is, data for each dose level was generated by three separated groups of three mice each.
A minimum of three dose levels (10, 30, and 100 mg/kg) are tested for each drug. Treatments are administered intraperitoneally one hour prior to testing. All dosages are calculated as parent compound and given in volumes of 10 ml/kg. Compounds are dissolved or suspended in 0.2% Methocel. Control animals are injected with Methocel.
Testing: A two part testing procedure is started one hour postinjection. First, the screen test (ST) is performed (see Pharmac. Biochem. Behav. 6, 351-353, 1977). Briefly this test consists of placing mice on individual wire screens which are then rotated 180 degrees at the start of a 60 second observation period. The number of mice falling off the inverted screen is recorded.
Data: The data obtained from the screen test are expressed as percent of mice falling off the screen. Data derived from locomotor activity of drug treated mice are compared to the activity of vehicle treated animals and are expressed as percent inhibition of spontaneous locomotion. All percentages reported for inhibition of locomotion (LI) are based upon data accumulated for one hour. Both phases of testing are graded: A=60-100%; G=31-59%; and N=0-30%. An overall dose rating is obtained by the following criteria:
LAD refers to the lowest dose at which an A rating is achieved. […] Utilizing this procedure, an overall dose rating of A was obtained for the noted compound at the indicated dose. The compounds are identified in the Examples.

T1 sequence (P30543 whole entry): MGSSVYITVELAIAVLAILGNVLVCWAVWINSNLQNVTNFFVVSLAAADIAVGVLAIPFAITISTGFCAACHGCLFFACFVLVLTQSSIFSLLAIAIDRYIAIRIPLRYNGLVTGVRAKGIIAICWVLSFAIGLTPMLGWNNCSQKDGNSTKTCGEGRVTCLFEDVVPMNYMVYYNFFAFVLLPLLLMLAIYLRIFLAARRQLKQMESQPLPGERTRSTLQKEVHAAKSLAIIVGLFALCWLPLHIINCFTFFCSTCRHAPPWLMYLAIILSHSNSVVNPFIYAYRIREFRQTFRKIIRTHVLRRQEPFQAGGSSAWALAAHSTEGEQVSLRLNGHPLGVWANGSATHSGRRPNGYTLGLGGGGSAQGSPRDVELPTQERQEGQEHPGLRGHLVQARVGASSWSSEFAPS

Structure (SMILES)	pIC50 (adenosine A2 receptor)	Inhibition of mouse locomotor activity (Swiss-Webster male mice [1]; 0.1 mg/kg intraperitoneally) [%]	Inhibition of mouse locomotor activity (Swiss-Webster male mice [1]; 0.3 mg/kg intraperitoneally) [%]	Inhibition of mouse locomotor activity (Swiss-Webster male mice [1]; 1 mg/kg intraperitoneally) [%]	Inhibition of mouse locomotor activity (Swiss-Webster male mice [1]; 3 mg/kg intraperitoneally) [%]	Inhibition of mouse locomotor activity (Swiss-Webster male mice [1]; 9.0 mg/kg intraperitoneally) [%]	Inhibition of mouse locomotor activity (Swiss-Webster male mice [1]; 30 mg/kg intraperitoneally) [%]	Screen test failure (Swiss-Webster male mice [2]; 0.1 mg/kg intraperitoneally) [%]	Screen test failure (Swiss-Webster male mice [2]; 0.3 mg/kg intraperitoneally) [%]	Screen test failure (Swiss-Webster male mice [2]; 1 mg/kg intraperitoneally) [%]	Screen test failure (Swiss-Webster male mice [2]; 3 mg/kg intraperitoneally) [%]	Screen test failure (Swiss-Webster male mice [2]; 9.0 mg/kg intraperitoneally) [%]	Screen test failure (Swiss-Webster male mice [2]; 30 mg/kg intraperitoneally) [%]	Inhibition of mouse locomotor activity (Swiss-Webster male mice [1]; 10 mg/kg intraperitoneally) [%]	Screen test failure (Swiss-Webster male mice [2]; 10 mg/kg intraperitoneally) [%]	Inhibition of mouse locomotor activity (Swiss-Webster male mice [1]; 100 mg/kg intraperitoneally) [%]	Screen test failure (Swiss-Webster male mice [2]; 100 mg/kg intraperitoneally) [%]
OC[C@H]1O[C@@H](n2cnc3c(NC4CCCc5ccccc54)ncnc32)[C@H](O)[C@@H]1O (stereo partly drawn) [Example 2, (R)-N^6-[1-Tetralinyl]-adenosine]	6.61	25	45	79	95	97	99	0	0	11	22	33	66	–	–	–	–
OC[C@H]1O[C@@H](n2cnc3c(NCC4CCc5ccccc54)ncnc32)[C@H](O)[C@@H]1O (stereo partly shown) [Example 21, N^6-[2,3-dihydro-1H-inden-1-yl]methyladenosine]	7.00	–	−19	23	61	–	99	–	0	0	0	–	55	82	22	–	–
COc1cccc2c1CCC[C@@H]2Nc1ncnc2c1ncn2[C@@H]1O[C@H](CO)[C@@H](O)[C@H]1O [Example 10, (S)-N^6-[5-methoxy-1-aminotetralin]-adenosine]	6.66	–	−19	65	88	–	97	–	11	22	22	–	66	95	44	–	–
COc1ccc2c(c1)C(Nc1ncnc3c1ncn3[C@@H]1O[C@H](CO)[C@@H](O)[C@H]1O)CCC2 (single isomer, unassigned) [Example 8]	6.39	–	25	83	88	–	94	–	11	11	11	–	65	93	22	–	–
COc1ccc2c(c1)CCCC2Nc1ncnc2c1ncn2[C@@H]1O[C@H](CO)[C@@H](O)[C@H]1O (stereo partly shown) [Example 6, N^6-[1-(6-Methoxy)-tetralinyl]-adenosine]	5.36	–	–	22	3	–	94	–	–	0	0	–	44	62	0	99	44
OC[C@H]1O[C@@H](n2cnc3c(NC4CCCc5c(O)cccc54)ncnc32)[C@H](O)[C@@H]1O (stereo partly shown) [Example 16, N^6-[1-(5-hydroxy)-tetralinyl]-adenosine]	6.59	–	–	–	−13	–	89	–	–	–	0	–	0	23	0	–	–
